Laboratory results taken from patent publication US9637485B2, “6,7-dihydrobenzo[a]quinolizin-2-one derivatives for the treatment and prophylaxis of hepatitis B virus infection” (Hoffmann-La Roche Inc., priority 2014, dated 2017).

Test system: HBsAg
Experiment: HBsAg assay (CLIA of secreted HBsAg in HepG2.2.15 culture supernatant)
Type: cell-based, HBV
Details: Hepatitis B virus, HepG2.2.15, read-out: IC50 (HBsAg secretion reduced by 50% compared to the no drug control), HepG2.2.15 cells, culture supernatant, HBsAg CLIA
Description: HepG2.2.15 cells (Acs et al. Proc Natl Acad Sci USA, 84, (1987), 4641-4), a constitutively HBV-expressing cell line were cultured in DMEM+Glutamax-I medium (Invitrogen, Carlsbad, Calif., USA, Catalog number: 11320082), supplemented with 10% fetal bovine serum (Invitrogen, Catalog number: 10099141) and G418 (Invitrogen, Catalog number: 10131027) at a final concentration of 200 mg/L and maintained in 5% CO2 at 37° C.
HepG2.2.15 cells were seeded in duplicate into white, 96-well plates at 1.5×10^4 cells/well. The cells were treated with a three-fold serial dilution series of the compounds in DMSO. The final DMSO concentration in all wells was 1% and DMSO was used as no drug control.
The HBsAg chemiluminescence immunoassay (CLIA) kit (Autobio Diagnostics Co., Zhengzhou, China, Catalog number: CL0310-2) was used to measure the levels of secreted HBV antigens semi-quantitatively. For the detection 50 μL/well culture supernatant was used and HBsAg was quantified using HBsAg chemiluminescence immunoassay (CLIA) kit (Autobio Diagnostics Co., Zhengzhou, China, Catalog number: CL0310-2), 50 μl of the supernatant was transferred to the CLIA assay plate and 50 μL of enzyme conjugate reagent was added into each well. The plates were sealed and gently agitated for 1 hour at room temperature. The supernatant-enzyme-mixture was discarded and wells were washed 6 times with 300 μL of PBS. The residual liquid was removed by plating the CLIA plate right side down on absorbent tissue paper. 25 μL of substrates A and B were added to each well. Luminance was measured using a luminometer (Mithras LB 940 Multimode Microplate Reader) after 10 minutes incubation. Dose-response curves were generated and the IC50 value was extrapolated by using the E-WorkBook Suite (ID Business Solutions Ltd., Guildford, UK). The IC50 was defined as the compound concentration (or conditioned media log dilution) at which HBsAg secretion was reduced by 50% compared to the no drug control.

Structure (SMILES): COCCCOc1cc2c(cc1OC)-c1cc(=O)c(C(=O)O)cn1C(COC)C2 (centres unmarked) [Example 18, 10-Methoxy-6-(methoxymethyl)-9-(3-methoxypropoxy)-2-oxo-6,7-dihydrobenzo[a]quinolizine-3-carboxylic acid]
- IC50: 75 nM

Structure (SMILES): COCCCOc1cc2c(cc1Cl)-c1cc(=O)c(C(=O)O)cn1C(C1CCOCC1)C2 (centres unmarked) [Example 19, 10-Chloro-9-(3-methoxypropoxy)-2-oxo-6-tetrahydropyran-4-yl-6,7-dihydrobenzo[a]quinolizine-3-carboxylic acid]
- IC50: 88 nM

Structure (SMILES): COCCCOc1cc2c(cc1OC)-c1cc(=O)c(C(=O)O)cn1C(C(C)(C)COCc1ccccc1)C2 (centres unmarked) [Example 23, 6-(2-Benzyloxy-1,1-dimethyl-ethyl)-10-methoxy-9-(3-methoxypropoxy)-2-oxo-6,7-dihydrobenzo[a]quinolizine-3-carboxylic acid]
- IC50: 18 nM

Structure (SMILES): COCCOc1cc2c(cc1Cl)-c1cc(=O)c(C(=O)O)cn1C(CSC)C2 (centres unmarked) [Example 33, 10-Chloro-9-(2-methoxyethoxy)-6-(methylsulfanylmethyl)-2-oxo-6,7-dihydrobenzo[a]quinolizine-3-carboxylic acid]
- IC50: 117 nM

Structure (SMILES): COCCOc1cc2c(cc1Cl)-c1cc(=O)c(C(=O)O)cn1C(CS(C)(=O)=O)C2 (centres unmarked) [Example 34, 10-Chloro-9-(2-methoxyethoxy)-6-(methylsulfonylmethyl)-2-oxo-6,7-dihydrobenzo[a]quinolizine-3-carboxylic acid]
- IC50: 3380 nM

Structure (SMILES): CCOc1cc2c(cc1OCC)-c1cc(=O)c(C(=O)O)cn1C(CO)C2 (centres unmarked) [Example 35, 9,10-Diethoxy-6-(hydroxymethyl)-2-oxo-6,7-dihydrobenzo[a]quinolizine-3-carboxylic acid]
- IC50: 868 nM

Structure (SMILES): CCOc1cc2c(cc1OCC)-c1cc(=O)c(C(=O)O)cn1C(COC(C)=O)C2 (centres unmarked) [Example 36, 6-(Acetoxymethyl)-9,10-diethoxy-2-oxo-6,7-dihydrobenzo[a]quinolizine-3-carboxylic acid]
- IC50: 254 nM

Structure (SMILES): CCOc1cc2c(cc1OCC)-c1cc(=O)c(C(=O)O)cn1C(CN)C2 (centres unmarked) [Example 37, 6-(Aminomethyl)-9,10-diethoxy-2-oxo-6,7-dihydrobenzo[a]quinolizine-3-carboxylic acid]
- IC50: 1540 nM

Structure (SMILES): CCOc1cc2c(cc1OCC)-c1cc(=O)c(C(=O)O)cn1C(CNS(C)(=O)=O)C2 (centres unmarked) [Example 38, 9,10-Diethoxy-6-(methanesulfonamidomethyl)-2-oxo-6,7-dihydrobenzo[a]quinolizine-3-carboxylic acid]
- IC50: 33300 nM

Structure (SMILES): CCOc1cc2c(cc1OCC)-c1cc(=O)c(C(=O)O)cn1C(CNC(=O)c1ccccc1)C2 (centres unmarked) [Example 39, 6-(Benzamidomethyl)-9,10-diethoxy-2-oxo-6,7-dihydrobenzo[a]quinolizine-3-carboxylic acid]
- IC50: 19800 nM

Structure (SMILES): CCOc1cc2c(cc1OCC)-c1cc(=O)c(C(=O)O)cn1C(CN1CCCC1=O)C2 (centres unmarked) [Example 40, 9,10-Diethoxy-2-oxo-6-[(2-oxopyrrolidin-1-yl)methyl]-6,7-dihydrobenzo[a]quinolizine-3-carboxylic acid]
- IC50: 7450 nM

Structure (SMILES): CCOc1cc2c(cc1OCC)-c1cc(=O)c(C(=O)O)cn1C(CN(C)C(C)=O)C2 (centres unmarked) [Example 41, 6-[[Acetyl(methyl)amino]methyl]-9,10-diethoxy-2-oxo-6,7-dihydrobenzo[a]quinolizine-3-carboxylic acid]
- IC50: 4860 nM

Structure (SMILES): CCOc1cc2c(cc1OCC)-c1cc(=O)c(C(=O)O)cn1C(CN1CCCC1)C2 (centres unmarked) [Example 42, 9,10-Diethoxy-2-oxo-6-(pyrrolidin-1-ylmethyl)-6,7-dihydrobenzo[a]quinolizine-3-carboxylic acid]
- IC50: 216 nM

Structure (SMILES): CCOc1cc2c(cc1OCC)-c1cc(=O)c(C(=O)O)cn1C(CN(C)C)C2 (centres unmarked) [Example 43, 6-[(Dimethylamino)methyl]-9,10-diethoxy-2-oxo-6,7-dihydrobenzo[a]quinolizine-3-carboxylic acid]
- IC50: 134 nM
